Measured values from patent US8791107B2, “N-substituted oxazinopteridines and oxazinopteridinones” (Takeda Pharmaceutical Company Limited, priority 2011, dated 2014).

Molecular target: T1, PI3Kδ (Homo sapiens, UniProt O00329)
T1 construct: The protein is full length and co-expressed with untagged PIK3R1; GST; purchased Invitrogen PV5274
Assay: PI3Kδ inhibition, modified PIK3CD Adapta TR-FRET assay
Assay type: biochemical
Conditions: recombinant GST-tagged full length PIK3CD co-expressed with PIK3R1 (p85α); 2 μM ATP, 50 μM PIP2; read-out: PI3Kδ Inhibition (pIC50) (converted)
Outline: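 Full-length GST-PIK3CD co-expressed with p85α was run in 50 mM HEPES pH 7.5, 3 mM MgCl2, 1 mM EGTA, 100 mM NaCl, 0.03% CHAPS, 2 mM DTT, 1% DMSO, with 12-point compound titrations. Reactions at room temperature were started with solution containing 2 μM ATP and 50 μM PIP2. ADP was detected by Adapta TR-FRET (620 nm-ratioed).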

T1 sequence (O00329 whole entry): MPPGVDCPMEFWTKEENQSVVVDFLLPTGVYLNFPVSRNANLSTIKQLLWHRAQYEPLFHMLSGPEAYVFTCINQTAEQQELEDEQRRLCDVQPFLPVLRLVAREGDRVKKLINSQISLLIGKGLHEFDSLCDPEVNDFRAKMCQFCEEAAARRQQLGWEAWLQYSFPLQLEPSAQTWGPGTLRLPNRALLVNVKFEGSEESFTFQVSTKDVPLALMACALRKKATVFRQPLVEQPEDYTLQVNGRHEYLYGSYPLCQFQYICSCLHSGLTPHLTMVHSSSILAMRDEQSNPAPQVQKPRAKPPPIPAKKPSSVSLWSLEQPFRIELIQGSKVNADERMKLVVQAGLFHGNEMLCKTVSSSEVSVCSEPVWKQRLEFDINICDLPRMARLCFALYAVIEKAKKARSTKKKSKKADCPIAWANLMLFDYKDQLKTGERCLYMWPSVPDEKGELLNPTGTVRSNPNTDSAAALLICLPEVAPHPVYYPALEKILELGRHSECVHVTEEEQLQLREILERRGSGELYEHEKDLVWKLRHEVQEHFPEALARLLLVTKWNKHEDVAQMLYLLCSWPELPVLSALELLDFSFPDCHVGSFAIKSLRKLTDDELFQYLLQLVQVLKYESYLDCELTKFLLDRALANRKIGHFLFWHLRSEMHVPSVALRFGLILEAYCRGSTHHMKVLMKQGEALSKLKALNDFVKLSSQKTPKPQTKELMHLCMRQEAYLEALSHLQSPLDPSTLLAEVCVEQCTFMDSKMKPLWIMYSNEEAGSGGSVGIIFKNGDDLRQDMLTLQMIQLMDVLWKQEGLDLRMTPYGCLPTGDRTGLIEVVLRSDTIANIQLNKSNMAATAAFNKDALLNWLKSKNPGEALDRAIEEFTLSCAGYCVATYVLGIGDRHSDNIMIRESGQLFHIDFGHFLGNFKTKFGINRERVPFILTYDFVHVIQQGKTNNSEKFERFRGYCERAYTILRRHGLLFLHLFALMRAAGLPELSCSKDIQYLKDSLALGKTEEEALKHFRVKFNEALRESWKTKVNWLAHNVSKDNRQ
T1 sequence (P27986 whole entry partner): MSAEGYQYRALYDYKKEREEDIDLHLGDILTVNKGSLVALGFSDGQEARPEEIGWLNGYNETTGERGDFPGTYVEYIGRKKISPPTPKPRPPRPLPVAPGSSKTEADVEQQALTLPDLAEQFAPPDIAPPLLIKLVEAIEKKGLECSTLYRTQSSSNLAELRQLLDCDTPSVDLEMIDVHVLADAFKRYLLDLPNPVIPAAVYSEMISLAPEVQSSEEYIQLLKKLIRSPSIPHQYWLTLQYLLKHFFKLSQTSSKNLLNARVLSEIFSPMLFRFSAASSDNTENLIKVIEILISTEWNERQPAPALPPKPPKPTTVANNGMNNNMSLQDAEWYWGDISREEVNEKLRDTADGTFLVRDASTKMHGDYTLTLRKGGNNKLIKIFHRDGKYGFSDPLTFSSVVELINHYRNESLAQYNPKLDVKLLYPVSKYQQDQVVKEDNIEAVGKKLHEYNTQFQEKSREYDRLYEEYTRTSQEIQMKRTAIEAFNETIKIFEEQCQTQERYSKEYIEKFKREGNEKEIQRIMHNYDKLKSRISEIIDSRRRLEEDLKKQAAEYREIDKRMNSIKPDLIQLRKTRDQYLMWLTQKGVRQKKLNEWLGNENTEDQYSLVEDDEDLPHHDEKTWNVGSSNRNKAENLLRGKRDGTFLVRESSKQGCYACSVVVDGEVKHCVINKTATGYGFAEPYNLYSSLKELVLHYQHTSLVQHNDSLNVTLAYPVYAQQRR

Row | Structure (SMILES) | IC50 [µM]
1 | CC(=O)Nc1ccccc1-c1ncc2c(n1)N1CCOCC1C(=O)N2Cc1ccc(S(C)(=O)=O)cc1 (stereo not shown) [Example 104, N-(2-(5-(4-(methylsulfonyl)benzyl)-6-oxo-5,6,6a,7,9,10-hexahydro-[1,4]oxazino[3,4-h]pteridin-2-yl)phenyl)acetamide] | 0.2
2 | CCOC(=O)c1cncc(-c2ncc3c(n2)N2CCOCC2C(=O)N3Cc2ccc(S(C)(=O)=O)cc2)c1 (stereo not shown) [Example 105, ethyl 5-(5-(4-(methylsulfonyl)benzyl)-6-oxo-5,6,6a,7,9,10-hexahydro-[1,4]oxazino[3,4-h]pteridin-2-yl)nicotinate] | 7.94
3 | CS(=O)(=O)c1ccc(CN2C(=O)C3COCCN3c3nc(-c4ccc(N)nc4)ncc32)cc1 (stereo not shown) [Example 106, 2-(6-aminopyridin-3-yl)-5-(4-(methylsulfonyl)benzyl)-6a,7,9,10-tetrahydro-[1,4]oxazino[3,4-h]pteridin-6(5H)-one] | 0.00794
4 | CS(=O)(=O)c1ccc(CN2C(=O)C3COCCN3c3nc(-c4ccc(C(N)=O)cc4)ncc32)cc1 (stereo not shown) [Example 107, 4-(5-(4-(methylsulfonyl)benzyl)-6-oxo-5,6,6a,7,9,10-hexahydro-[1,4]oxazino[3,4-h]pteridin-2-yl)benzamide] | 0.398
5 | CS(=O)(=O)c1ccc(CN2C(=O)C3COCCN3c3nc(-c4cnc5[nH]ccc5c4)ncc32)cc1 (stereo not shown) [Example 108, 5-(4-(methylsulfonyl)benzyl)-2-(1H-pyrrolo[2,3-b]pyridin-5-yl)-6a,7,9,10-tetrahydro-[1,4]oxazino[3,4-h]pteridin-6(5H)-one] | 0.0316
6 | CNC(=O)c1ccc(-c2ncc3c(n2)N2CCOCC2C(=O)N3Cc2ccc(S(C)(=O)=O)cc2)cn1 (stereo not shown) [Example 109, N-methyl-5-(5-(4-(methylsulfonyl)benzyl)-6-oxo-5,6,6a,7,9,10-hexahydro-[1,4]oxazino[3,4-h]pteridin-2-yl)picolinamide] | 7.94
7 | CS(=O)(=O)c1ccc(CN2C(=O)C3COCCN3c3nc(-c4cccc(-c5cc[nH]n5)c4)ncc32)cc1 (stereo not shown) [Example 110, 2-(3-(1H-pyrazol-3-yl)phenyl)-5-(4-(methylsulfonyl)benzyl)-6a,7,9,10-tetrahydro-[1,4]oxazino[3,4-h]pteridin-6(5H)-one] | 3.16
8 | CNS(=O)(=O)c1cccc(-c2ncc3c(n2)N2CCOCC2C(=O)N3Cc2ccc(S(C)(=O)=O)cc2)c1 (stereo not shown) [Example 111, N-methyl-3-(5-(4-(methylsulfonyl)benzyl)-6-oxo-5,6,6a,7,9,10-hexahydro-[1,4]oxazino[3,4-h]pteridin-2-yl)benzenesulfonamide] | 1.58
9 | CC(=O)Nc1ccc(-c2ncc3c(n2)N2CCOCC2C(=O)N3Cc2ccc(S(C)(=O)=O)cc2)cc1 (stereo not shown) [Example 112, N-(4-(5-(4-(methylsulfonyl)benzyl)-6-oxo-5,6,6a,7,9,10-hexahydro-[1,4]oxazino[3,4-h]pteridin-2-yl)phenyl)acetamide] | 0.0316
10 | CS(=O)(=O)c1ccc(CN2C(=O)C3COCCN3c3nc(-c4cccc(C(N)=O)c4)ncc32)cc1 (stereo not shown) [Example 113, 3-(5-(4-(methylsulfonyl)benzyl)-6-oxo-5,6,6a,7,9,10-hexahydro-[1,4]oxazino[3,4-h]pteridin-2-yl)benzamide] | 0.501
11 | CS(=O)(=O)c1ccc(CN2C(=O)C3COCCN3c3nc(-c4ccc5[nH]ncc5c4)ncc32)cc1 (stereo not shown) [Example 114, 2-(1H-indazol-5-yl)-5-(4-(methylsulfonyl)benzyl)-6a,7,9,10-tetrahydro-[1,4]oxazino[3,4-h]pteridin-6(5H)-one] | 0.2
12 | CS(=O)(=O)c1ccc(CN2C(=O)C3COCCN3c3nc(-c4cccc(S(N)(=O)=O)c4)ncc32)cc1 (stereo not shown) [Example 115, 3-(5-(4-(methylsulfonyl)benzyl)-6-oxo-5,6,6a,7,9,10-hexahydro-[1,4]oxazino[3,4-h]pteridin-2-yl)benzenesulfonamide] | 0.631
13 | CS(=O)(=O)c1ccc(CN2C(=O)C3COCCN3c3nc(-c4cccc(S(=O)(=O)NC5CC5)c4)ncc32)cc1 (stereo not shown) [Example 116, N-cyclopropyl-3-(5-(4-(methylsulfonyl)benzyl)-6-oxo-5,6,6a,7,9,10-hexahydro-[1,4]oxazino[3,4-h]pteridin-2-yl)benzenesulfonamide] | 1.58
14 | CS(=O)(=O)Nc1cccc(-c2ncc3c(n2)N2CCOCC2C(=O)N3Cc2ccc(S(C)(=O)=O)cc2)c1 (stereo not shown) [Example 117, N-(3-(5-(4-(methylsulfonyl)benzyl)-6-oxo-5,6,6a,7,9,10-hexahydro-[1,4]oxazino[3,4-h]pteridin-2-yl)phenyl)methanesulfonamide] | 0.794
15 | CS(=O)(=O)c1ccc(CN2C(=O)C3COCCN3c3nc(-c4ccc5[nH]c(=O)[nH]c5c4)ncc32)cc1 (stereo not shown) [Example 119, 5-(4-(methylsulfonyl)benzyl)-2-(2-oxo-2,3-dihydro-1H-benzo[d]imidazol-5-yl)-6a,7,9,10-tetrahydro-[1,4]oxazino[3,4-h]pteridin-6(5H)-one] | 2.51
16 | CS(=O)(=O)c1ccc(CN2C(=O)C3COCCN3c3nc(-c4cccc(NS(=O)(=O)C5CC5)c4)ncc32)cc1 (stereo not shown) [Example 120, N-(3-(5-(4-(methylsulfonyl)benzyl)-6-oxo-5,6,6a,7,9,10-hexahydro-[1,4]oxazino[3,4-h]pteridin-2-yl)phenyl)cyclopropanesulfonamide] | 7.94

Row | Structure (SMILES) | IC50 [µM]
17 | CS(=O)(=O)c1ccc(CN2C(=O)C3COCCN3c3nc(-c4cnc5cc[nH]c5c4)ncc32)cc1 (stereo not shown) [Example 121, 5-(4-(methylsulfonyl)benzyl)-2-(1H-pyrrolo[3,2-b]pyridin-6-yl)-6a,7,9,10-tetrahydro-[1,4]oxazino[3,4-h]pteridin-6(5H)-one] | 0.0316
18 | CNC(=O)c1cccc(-c2ncc3c(n2)N2CCOCC2C(=O)N3Cc2ccc(S(C)(=O)=O)cc2)c1 (stereo not shown) [Example 122, N-methyl-3-(5-(4-(methylsulfonyl)benzyl)-6-oxo-5,6,6a,7,9,10-hexahydro-[1,4]oxazino[3,4-h]pteridin-2-yl)benzamide] | 1
19 | CS(=O)(=O)c1ccc(CN2C(=O)C3COCCN3c3nc(-c4cccc5[nH]ccc45)ncc32)cc1 (stereo not shown) [Example 123, 2-(1H-indol-4-yl)-5-(4-(methylsulfonyl)benzyl)-6a,7,9,10-tetrahydro-[1,4]oxazino[3,4-h]pteridin-6(5H)-one] | 0.000794
20 | CS(=O)(=O)c1ccc(CN2C(=O)C3COCCN3c3nc(-c4ccc5cn[nH]c5c4)ncc32)cc1 (stereo not shown) [Example 124, 2-(1H-indazol-6-yl)-5-(4-(methylsulfonyl)benzyl)-6a,7,9,10-tetrahydro-[1,4]oxazino[3,4-h]pteridin-6(5H)-one] | 3.98
21 | CS(=O)(=O)c1ccc(CN2C(=O)C3COCCN3c3nc(-c4cnc(N)nc4)ncc32)cc1 (stereo not shown) [Example 125, 2-(2-aminopyrimidin-5-yl)-5-(4-(methylsulfonyl)benzyl)-6a,7,9,10-tetrahydro-[1,4]oxazino[3,4-h]pteridin-6(5H)-one] | 0.01
22 | CS(=O)(=O)c1ccc(CN2C(=O)C3COCCN3c3nc(-c4ccc5[nH]ccc5c4)ncc32)cc1 (stereo not shown) [Example 127, 2-(1H-indol-5-yl)-5-(4-(methylsulfonyl)benzyl)-6a,7,9,10-tetrahydro-[1,4]oxazino[3,4-h]pteridin-6(5H)-one] | 0.126
23 | CS(=O)(=O)c1ccc(CN2C(=O)C3COCCN3c3nc(-c4cccc(-n5cccn5)c4)ncc32)cc1 (stereo not shown) [Example 128, 2-(3-(1H-pyrazol-1-yl)phenyl)-5-(4-(methylsulfonyl)benzyl)-6a,7,9,10-tetrahydro-[1,4]oxazino[3,4-h]pteridin-6(5H)-one] | 0.501
24 | Cc1n[nH]cc1-c1ncc2c(n1)N1CCOCC1C(=O)N2Cc1ccc(S(C)(=O)=O)cc1 (stereo not shown) [Example 130] | 0.126
25 | CS(=O)(=O)c1ccc(CN2C(=O)C3COCCN3c3nc(-c4ccc(N)c(N)c4)ncc32)cc1 (stereo not shown) [Example 131, 2-(3,4-diaminophenyl)-5-(4-(methylsulfonyl)benzyl)-6a,7,9,10-tetrahydro-[1,4]oxazino[3,4-h]pteridin-6(5H)-one] | 0.126
26 | CS(=O)(=O)c1ccc(CN2C(=O)C3COCCN3c3nc(-c4cccc(N5CCCS5(=O)=O)c4)ncc32)cc1 (stereo not shown) [Example 132, 2-(3-(1,1-dioxidoisothiazolidin-2-yl)phenyl)-5-(4-(methylsulfonyl)benzyl)-6a,7,9,10-tetrahydro-[1,4]oxazino[3,4-h]pteridin-6(5H)-one] | 6.31
27 | CS(=O)(=O)c1ccc(CN2C(=O)C3COCCN3c3nc(-c4c[nH]c5c(Cl)cccc45)ncc32)cc1 (stereo not shown) [Example 134, 2-(7-chloro-1H-indol-3-yl)-5-(4-(methylsulfonyl)benzyl)-6a,7,9,10-tetrahydro-[1,4]oxazino[3,4-h]pteridin-6(5H)-one] | > 0.1
28 | COc1ccc2c(-c3ncc4c(n3)N3CCOCC3C(=O)N4Cc3ccc(S(C)(=O)=O)cc3)c[nH]c2c1 (stereo not shown) [Example 136, 2-(6-methoxy-1H-indol-3-yl)-5-(4-(methylsulfonyl)benzyl)-6a,7,9,10-tetrahydro-[1,4]oxazino[3,4-h]pteridin-6(5H)-one] | 0.501
29 | CS(=O)(=O)c1ccc(CN2C(=O)C3COCCN3c3nc(-c4c[nH]c5ncccc45)ncc32)cc1 (stereo not shown) [Example 137, 5-(4-(methylsulfonyl)benzyl)-2-(1H-pyrrolo[2,3-b]pyridin-3-yl)-6a,7,9,10-tetrahydro-[1,4]oxazino[3,4-h]pteridin-6(5H)-one] | 0.501
30 | COc1cccc2c(-c3ncc4c(n3)N3CCOCC3C(=O)N4Cc3ccc(S(C)(=O)=O)cc3)c[nH]c12 (stereo not shown) [Example 138, 2-(7-methoxy-1H-indol-3-yl)-5-(4-(methylsulfonyl)benzyl)-6a,7,9,10-tetrahydro-[1,4]oxazino[3,4-h]pteridin-6(5H)-one] | 3.16
31 | CS(=O)(=O)c1ccc(CN2C(=O)C3COCCN3c3nc(-c4cccc5[nH]cnc45)ncc32)cc1 (stereo not shown) [Example 139, 2-(1H-benzo[d]imidazol-4-yl)-5-(4-(methylsulfonyl)benzyl)-6a,7,9,10-tetrahydro-[1,4]oxazino[3,4-h]pteridin-6(5H)-one] | 0.0794
